Experimental findings from ChEMBL document CHEMBL1126508, “Quinazolinones 1: design and synthesis of potent quinazolinone- containing AT1-selective angiotensin-II receptor antagonists” (Bioorg Med Chem Lett, 1993) are described below.

The nature of series [1]: Tested for Lipophilicity of the compound. It counts as physicochemical. The settings on record: octanol/water.
Series [2] concerns the target T1, Type-1 angiotensin II receptor (Oryctolagus cuniculus, UniProt P34976).
T1 sequence (P34976 whole entry): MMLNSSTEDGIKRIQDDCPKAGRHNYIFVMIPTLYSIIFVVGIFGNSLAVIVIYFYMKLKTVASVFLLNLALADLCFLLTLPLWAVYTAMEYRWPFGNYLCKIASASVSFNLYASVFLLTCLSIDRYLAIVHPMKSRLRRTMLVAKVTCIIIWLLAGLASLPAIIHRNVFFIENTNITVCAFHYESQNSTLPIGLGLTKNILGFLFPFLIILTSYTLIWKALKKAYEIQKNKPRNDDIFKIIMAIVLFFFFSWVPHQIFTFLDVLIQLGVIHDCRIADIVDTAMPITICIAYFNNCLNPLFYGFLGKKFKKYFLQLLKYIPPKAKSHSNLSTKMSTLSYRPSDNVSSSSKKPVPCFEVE
The series can be described thus: Binding affinity against Angiotensin II type 1 Receptor in rabbit aortic tissue. Format: tissue-based, Aorta.

The target of series [3] is T1, Type-1 angiotensin II receptor. In words: Ability to displace [125I]Sar1-Ile8-AII from Angiotensin II receptor, type 1 in rabbit aorta in presence of 0.2% bovine serum albumin (BSA) was determined in vitro. Format: tissue-based.

Take `CCCCc1nc2ccc(Cl)cc2c(=O)n1Cc1ccc(-c2ccccc2-c2nn[nH]n2)cc1`: the Lipophilicity in series [1] came out at 0.71. In series [2], this compound came in with a half-inhibitory concentration (IC50) of 29 nM.

Regarding `CCCCc1nc2ccc(N)cc2c(=O)n1Cc1ccc(-c2ccccc2-c2nnn[nH]2)cc1`, the Lipophilicity in series [1] was -1.23. In series [2], this compound gave an IC50 of 1.3 nM.

On to `CCCCc1nc2cccc(F)c2c(=O)n1Cc1ccc(-c2ccccc2-c2nn[nH]n2)cc1`, for which the concentration for half-maximal inhibition (IC50) in series [2] was determined as 10 nM.

As to `CCCCc1nc2ccc(I)cc2c(=O)n1Cc1ccc(-c2ccccc2-c2nnn[nH]2)cc1`, the Lipophilicity in series [1] worked out at 1.12. Also, in series [3], the 50% inhibitory concentration (IC50) turned out to be 12 nM. The compound `CCCCc1nc2ccc(C)cc2c(=O)n1Cc1ccc(-c2ccccc2C(=O)O)cc1` yielded an IC50 in series [2] of 92 nM. Still for that read-out and setting: for `CCCc1nc2ccc(C)cc2c(=O)n1Cc1ccc(-c2ccccc2-c2nn[nH]n2)cc1` the value was 10 nM. `CCCCc1nc2ccc([N+](=O)[O-])cc2c(=O)n1Cc1ccc(-c2ccccc2-c2nn[nH]n2)cc1` came in with a Lipophilicity in series [1] of -0.28. In series [2], this compound displayed an IC50 of 28 nM. The like results for `CCCCc1nc2ccc(OC)cc2c(=O)n1Cc1ccc(-c2ccccc2-c2nnn[nH]2)cc1` were, in that order, -0.02 and 5 nM.

As for `CCCCc1nc2cccc(C)c2c(=O)n1Cc1ccc(-c2ccccc2C(=O)O)cc1`, the IC50 in series [2] came to 370 nM.

For the compound `CCCCCc1nc2ccc(C)cc2c(=O)n1Cc1ccc(-c2ccccc2-c2nnn[nH]2)cc1`, in series [2], the IC50 turned out to be 6.4 nM.

In series [2], `CCc1nc2ccc(C)cc2c(=O)n1Cc1ccc(-c2ccccc2-c2nn[nH]n2)cc1` had an IC50 of more than 100 nM. On the same count and under the same terms, in the case of `CCCCc1nc2c(C)cccc2c(=O)n1Cc1ccc(-c2ccccc2C(=O)O)cc1` it was 1400 nM. Still for that read-out and setting: for `CCCCc1nc2cc3ccccc3cc2c(=O)n1Cc1ccc(-c2ccccc2C(=O)O)cc1` the value was 380 nM. Regarding `CCCCc1nc2ccc(NC(C)=O)cc2c(=O)n1Cc1ccc(-c2ccccc2-c2nnn[nH]2)cc1`, the Lipophilicity in series [1] was -0.97. The IC50 in series [2] amounted to 9 nM. Regarding `CCCCC(=O)Nc1ccc2nc(CCCC)n(Cc3ccc(-c4ccccc4-c4nnn[nH]4)cc3)c(=O)c2c1`, in series [2], the half-maximal inhibitory concentration (IC50) was 2 nM. Turning to `CCCCc1nc2ccc(F)cc2c(=O)n1Cc1ccc(-c2ccccc2-c2nn[nH]n2)cc1`, the Lipophilicity in series [1] turned out to be 0.14. The same compound had an IC50 in series [2] of 26 nM. In series [1], `CCCCc1nc2ccc(C(F)(F)F)cc2c(=O)n1Cc1ccc(-c2ccccc2-c2nn[nH]n2)cc1` came in with a Lipophilicity of 0.88. Besides, in series [3], the IC50 worked out at 12 nM. Consider `CCCCc1nc2ccc(C)cc2c(=O)n1Cc1ccc(-c2ccccc2-c2nnn[nH]2)cc1`, for which the Lipophilicity in series [1] stood at 0.56. In series [2], the IC50 was 4 nM. As to `CCCCc1nc2cc(Cl)ccc2c(=O)n1Cc1ccc(-c2ccccc2-c2nn[nH]n2)cc1`, the IC50 in series [2] stood at 15 nM.

Compound `CCCCc1nc2cc(OC)c(OC)cc2c(=O)n1Cc1ccc(-c2ccccc2-c2nnn[nH]2)cc1` returned an IC50 in series [2] of 13 nM. Consider `CCCCc1nc2ccccc2c(=O)n1Cc1ccc(-c2ccccc2-c2nn[nH]n2)cc1`, for which the Lipophilicity in series [1] was 0. The compound also registered a half-inhibitory concentration (IC50) in series [2] of 10 nM. For `CCCCc1nc2cc(C)ccc2c(=O)n1Cc1ccc(-c2ccccc2C(=O)O)cc1`, in series [2], the IC50 worked out at 370 nM. In series [2], `CCCCc1nc2ccccc2c(=O)n1Cc1ccc(-c2ccccc2C(=O)O)cc1` displayed an IC50 of 200 nM.
